According to patent US20130123222A1, “Synergistic Anti-Cancer Activity of SR16388 with Anti-Mitotic Drugs” (SRI INTERNATIONAL, INC., priority 2011, published 2013):
Numbered stars: 1 amine (or outer) side, 2 acyl side, 3 side chain; on linkers, the order of the positions; unused ones are H or OH. Bridge positions count the residues as written; N and C are the ends. Square brackets hold non-standard residues; d marks the D form. Peptide text beside a SMILES is read from it. I, II: the chains in the order shown. Actinocin(9to1) = Cc1c2oc3c(C)ccc(C(=O)[*:1])c3nc-2c(C(=O)[*:2])c(N)c1=O; NMeV = CN[C@H](C(=O)O)C(C)C; Sar = CNCC(=O)O

Columns and labels:
[1] = system: panel of 48 to 60 cell lines; experiment: 5×4 combination screen with SR16388; synergism hit rate by algorithm (Z score); assay type: cell-based; conditions: in combination with SR16388, all 20 (5×4) dose combinations
Description: (§1) SR16388 was synthesized in house.
5) A “combination score” was assigned to each specific combination (Ca1b1x): C=1 if Za1b1x>3*SD and C=0 if Za1b1x≦3*SD score);
6) Hit rate of each combination was calculated by comparing the sum of the combination scores of all 20 (5×4) dose combinations with all cell lines to the total number of data points of that specific combination;
7) Hit rate were ranked from high to low to identify potential synergistic combinations.

[2] = system: panel of 48 to 60 cell lines; experiment: 5×4 combination screen with SR16388, CellTiter-Glo viability; synergy by pattern recognition; conditions: in combination with SR16388, 5x4-T1; for no effect (number of cell lines) / synergy (number of cell lines): pattern recognition, of 60 cell lines incl. no data; for % synergy: share of cell lines with data
Description: Cells were treated with compounds alone or in combination for three days and CellTiter-Glo® Luminescent Cell Viability Assay (Promega Corp.) was used as the endpoint to measure cell viability.
Cells were cultured in DMEM with 10% fetal bovine serum and used between passage 2 and passage 20. Cells were harvested on Day-1 (FIG. 1A) and re-supspended to the corresponding seeding density and seeded with Wellmate (ThermoFisher) to 384 plates (BD or GBO).
40 mM Compound stocks in 100% DMSO were made. Master plates were made with Janus (PerkinElmer), then further diluted and added to the cell plates with Matrix Platemate (Thermo) on Day 0.
CellTiter-Glo® Luminescent Cell Viability Assay (Promega Corp.) was used to measure ATP as an indicator of viable cells on Day 3 using Envision (PerkinElmer) and back up reader Analyst HT (MDS) and Gen5 (BioTek).
Single point, 5×4 checkque board platemap was used in the initial screening.
Relative Luminescent Units (RLU) were plotted against corresponding drug concentrations and fitted with standard four parameter sigmoidal curve with custom coded R program or Calcusyn (Biosoft, Cambridge, UK).

cancer cell lines = experiment: Combination cell viability assay, general observations on ratios and confirmed synergy; assay type: cell-based; conditions: in combination with SR16388
Description: Cells were treated with compounds alone or in combination for three days and CellTiter-Glo® Luminescent Cell Viability Assay (Promega Corp.) was used as the endpoint to measure cell viability. […] Cells were harvested on Day-1 (FIG. 1A) and re-supspended to the corresponding seeding density and seeded with Wellmate (ThermoFisher) to 384 plates (BD or GBO). […] Master plates were made with Janus (PerkinElmer), then further diluted and added to the cell plates with Matrix Platemate (Thermo) on Day 0. CellTiter-Glo® Luminescent Cell Viability Assay (Promega Corp.) was used to measure ATP as an indicator of viable cells on Day 3 using Envision (PerkinElmer) and back up reader Analyst HT (MDS) and Gen5 (BioTek). Relative Luminescent Units (RLU) were plotted against corresponding drug concentrations and fitted with standard four parameter sigmoidal curve with custom coded R program or Calcusyn (Biosoft, Cambridge, UK).

[3] = Prior in vivo xenograft study and other safety data
[4] = system: various cancer cell lines; experiment: 11×7 synergism hit rate over all cell lines (by algorism); assay type: cell-based; conditions: when tested with SR16388
From the text: as §1
Within the same type of cancer cells, some cell lines have more synergistic hits than others. Melanoma and breast cancer cell lines had the highest hit rate.

Row | Compound | % hit/combo [1] | no effect (number of cell lines) [2] | synergy (number of cell lines) [2] | % synergy [2] | interaction with SR16388 (confirmed) (cancer cell lines) | overlapping toxicities with microtubulin inhibitors [3] | tolerability [3] | hit rate [4]
1 | Nc1nc(Cl)nc2c1ncn2[C@H]1C[C@H](O)[C@@H](CO)O1 [Cladribine] | 0.67% | 42 | 0 | 0% | – | – | – | –
2 | N.N.O=C([O-])C1(C(=O)[O-])CCC1.[Pt+2] [Carboplatin] | 0.83% | 41 | 1 | 2% | – | – | – | –
3 | Nc1nc(F)nc2c1ncn2[C@@H]1O[C@H](CO)[C@@H](O)[C@@H]1O [FluroaraA] | 0.67% | 42 | 0 | 0% | – | – | – | –
4 | S=P(N1CC1)(N1CC1)N1CC1 [Thiotepa] | 0.83% | 42 | – | – | – | – | – | –
5 | Cc1ccc(NC(=O)c2ccc(CN3CCN(C)CC3)cc2)cc1Nc1nccc(-c2cccnc2)n1 [Imatinib] | 0.92% | 41 | 1 | 2% | – | – | – | –
6 | Cn1nnc2c(C(N)=O)ncn2c1=O [Temozolomide] | 0.75% | 42 | – | – | – | – | – | –
7 | CCC1=C[C@@H]2CN(C1)Cc1c([nH]c3ccccc13)[C@@](C(=O)OC)(c1cc3c(cc1OC)N(C)[C@H]1[C@@](O)(C(=O)OC)[C@H](OC(C)=O)[C@]4(CC)C=CCN5CC[C@]31[C@@H]54)C2 [Vinorelbine] | – | – | – | – | synergistic anti-proliferation effect | – | – | –
8 | CC1=C(/C=C/C(C)=C/C=C/C(C)=C/C(=O)O)C(C)(C)CCC1 [Tretinoin] | 0.58% | 42 | 0 | 0% | – | – | – | –
9 | Cc1nc(Nc2ncc(C(=O)Nc3c(C)cccc3Cl)s2)cc(N2CCN(CCO)CC2)n1 [Dasatinib] | 1.08% | 50 | 8 | 14% | – | – | – | –
10 | COc1nc(N)nc2c1ncn2[C@@H]1O[C@H](CO)[C@@H](O)[C@@H]1O [Nelarabine] | 0.33% | 58 | 0 | 0% | – | – | – | –
11 | CO[C@H]1C[C@@H]2CC[C@@H](C)[C@@](O)(O2)C(=O)C(=O)N2CCCC[C@H]2C(=O)O[C@H]([C@H](C)C[C@@H]2CC[C@@H](O)[C@H](OC)C2)CC(=O)[C@H](C)/C=C(\C)[C@@H](O)[C@@H](OC)C(=O)[C@H](C)C[C@H](C)/C=C/C=C/C=C/1C [Rapamycin] | 0.83% | 54 | – | – | – | – | – | –
12 | CC/C(=C(\c1ccccc1)c1ccc(OCCN(C)C)cc1)c1ccccc1 [Tamoxifen] | 0.83% | 39 | 3 | 7% | – | – | – | –
13 | CO[C@H]1C[C@@H]2CC[C@@H](C)[C@@](O)(O2)C(=O)C(=O)N2CCCC[C@H]2C(=O)O[C@H]([C@H](C)C[C@@H]2CC[C@@H](OCCO)[C@H](OC)C2)CC(=O)[C@H](C)/C=C(\C)[C@@H](O)[C@@H](OC)C(=O)[C@H](C)C[C@H](C)/C=C/C=C/C=C/1C [Everolimus] | 0.42% | 58 | 0 | 0% | – | – | – | –
14 | O=C(CCCCCCC(=O)Nc1ccccc1)NO [Vorinostat] | 0.83% | 58 | 0 | 0% | – | – | – | –
15 | CCc1c2c(nc3ccc(O)cc13)-c1cc3c(c(=O)n1C2)COC(=O)[C@]3(O)CC [SN38] | 0.58% | 45 | 13 | 22% | – | – | – | –
16 | O=c1[nH]c(=O)n([C@H]2C[C@H](O)[C@@H](CO)O2)cc1F [Floxuridine] | 0.67% | 42 | 0 | 0% | – | – | – | –
17 | Nc1ccn([C@@H]2O[C@H](CO)[C@@H](O)[C@@H]2O)c(=O)n1 [Cytarabine] | 0.33% | 42 | 0 | 0% | – | – | – | –
18 | Cc1ccc(-c2cc(C(F)(F)F)nn2-c2ccc(S(N)(=O)=O)cc2)cc1 [Celecoxib] | 0.67% | 42 | 0 | 0% | – | – | – | –
19 | C[C@@H]1Cc2cc(O)ccc2[C@H]2CC[C@]3(C)/C(=C/COCCN(C)C)CC[C@H]3[C@H]12 [SR16388] | – | – | – | – | – | does not have ovelapping toxicities | well tolerated | –
20 | C/C=C1\NC(=O)[C@H]2CSSCC/C=C/[C@H](CC(=O)N[C@H](C(C)C)C(=O)N2)OC(=O)[C@H](C(C)C)NC1=O [Romidepsin] | 0.75% | 52 | 6 | 10% | – | – | – | –
21 | Cc1c2oc3c(C)ccc(C(=O)N[C@@H]4C(=O)N[C@H](C(C)C)C(=O)N5CCC[C@H]5C(=O)N(C)CC(=O)N(C)[C@@H](C(C)C)C(=O)O[C@@H]4C)c3nc-2c(C(=O)N[C@@H]2C(=O)N[C@H](C(C)C)C(=O)N3CCC[C@H]3C(=O)N(C)CC(=O)N(C)[C@@H](C(C)C)C(=O)O[C@@H]2C)c(N)c1=O [Actinomycin] (I: T[dV]P[Sar][NMeV] / II: T[dV]P[Sar][NMeV]; ester I:1-I:C, II:1-II:C; linker I:N-II:N via Actinocin(9to1)) | 1.67% | 39 | – | – | – | – | – | 1.89%
22 | Nc1ccn([C@@H]2O[C@H](CO)[C@@H](O)C2(F)F)c(=O)n1 [Gemcitabine] | 0.83% | 58 | 0 | 0% | – | – | – | –
23 | Cc1cn(-c2cc(NC(=O)c3ccc(C)c(Nc4nccc(-c5cccnc5)n4)c3)cc(C(F)(F)F)c2)cn1 [Nilotinib] | 0.33% | 42 | 0 | 0% | – | – | – | –
24 | N#Cc1ccc(C(c2ccc(C#N)cc2)n2cncn2)cc1 [Letrozole] | 0.42% | 42 | 0 | 0% | – | – | – | –
25 | Nc1nc(Cl)nc2c1ncn2[C@@H]1O[C@H](CO)[C@@H](O)[C@@H]1F [Clofarabine] | 0.50% | 58 | – | – | – | – | – | –
26 | CCCCCOC(=O)Nc1nc(=O)n([C@@H]2O[C@H](C)[C@@H](O)[C@H]2O)cc1F [Capecitabine] | 1.08% | 58 | 0 | 0% | – | – | – | –
27 | CS(=O)(=O)CCNCc1ccc(-c2ccc3ncnc(Nc4ccc(OCc5cccc(F)c5)c(Cl)c4)c3c2)o1 [Lapatinib] | 0.67% | 55 | 3 | 5% | – | – | – | –
28 | CCN(CC)CCNC(=O)c1c(C)[nH]c(/C=C2\C(=O)Nc3ccc(F)cc32)c1C [Sunitinib] | 1.25% | 56 | – | – | – | – | – | –
